# The NIST ThermoML archive (doi:10.1021/je800505y)
# Numbers after ± are expanded uncertainties.
# Conditions: Liquid, Ebulliometric method (Recirculating still)
SMILES,vapor or sublimation pressure (253.15 K) [kPa],vapor or sublimation pressure (263.15 K) [kPa],vapor or sublimation pressure (278.15 K) [kPa],vapor or sublimation pressure (292.92 K) [kPa]
"FCC(F)(F)F [1,1,1,2-tetrafluoroethane]",131 ± 10,203 ± 10,353 ± 10,571 ± 10
CCF [fluoroethane],214 ± 10,311 ± 10,517 ± 10,802 ± 10
